# How the values were obtained:
# [1] = target: T1, HOD (1-H-3-hydroxy-4-oxoquinaldine 2,4-dioxygenase) (Paenarthrobacter nitroguajacolicus, UniProt O31266, H251A); experiment: X-ray crystallography, normoxic and O2-pressurised (soak-and-freeze); type: binding; conditions: 2.0 Å (normoxic) and 2.1 Å (hyperoxic, 40 bar O2, 2 min); active site, non-reactive substrate analogue
# T1 construct: crystallised protein; construct, tags and host only in supplement
# [2] = target: T2, HOD (1-H-3-hydroxy-4-oxoquinaldine 2,4-dioxygenase) (Paenarthrobacter nitroguajacolicus, UniProt O31266, S101A); experiment: as above; type: binding; conditions: 2.0 Å; with water (normoxic) or O2 (40 bar, 2 min) at the R-site; active site
# T2 construct: crystallised protein; construct, tags and host only in supplement
compound,measurement,setting,value
"Cc1cc(=O)c2ccccc2[nH]1 [MQO, 2-methyl-quinolin-4(1H)-one]","X-ray crystallography, normoxic and O2-pressurised (soak-and-freeze)",[1],MQO binds in the active site similarly to QND
same,"X-ray crystallography, normoxic and O2-pressurised (soak-and-freeze)",[2],we then solved the structure of HOD^S101A in a complex with MQO
